Columns and labels:
Balb/c spleen cells = experiment: Mixed lymphocyte reaction (MLR), murine; format: cell-based, mouse; conditions: inhibition of Balb/c spleen cell proliferation, 5 days co-incubation with irradiated CBA spleen cells; relative to rapamycin
From the text: 1. Mixed lymphocyte reaction (MLR)
The Mixed Lymphocyte Reaction was originally developed in connection with allografts, to assess the tissue compatibility between potential organ donors and recipients, and is one of the best established models of immune reaction in vitro. […] The irradiated allogeneic cells induce a proliferative response in the Balb/c spleen cells which can be measured by labeled precursor incorporation into the DNA. […] The inhibitory capacity of the test sample may be compared to rapamycin and expressed as a relative IC50 (i.e. IC50 test sample/IC50 rapamycin).

[1] = test system: interleukin-6 (IL-6)-dependent mouse hybridoma cell line; experiment: IL-6 mediated proliferation (IL-6 PROL); format: cell-based; conditions: inhibition of IL-6 dependent hybridoma proliferation, (3-H)thymidine incorporation; relative to rapamycin
Procedure: 2. IL-6 mediated proliferation (IL-6 PROL)
The capacity of the Compounds of formula I to interfere with growth factor, associated signalling pathways is assessed using an interleukin-6 (IL-6)-dependent mouse hybridoma cell line. The assay is performed in 96-well microtiter plates. […] Following a 66 hour incubation in the absence or presence of a test sample, cells are pulsed with 1 μCi (3-H)thymidine/well for another 6 hours, harvested and counted by liquid scintillation. (3-H)thymidine incorporation into DNA correlates with the increase in cell number and is thus a measure of cell proliferation. […] The inhibitory capacity of the test sample may be compared to rapamycin and expressed as a relative IC50 (i.e. test sample/IC50 rapamycin).

[2] = molecular target: T1, recombinant human macrophilin-12 (FKBP-12) (Homo sapiens, UniProt P62942); experiment: Macrophilin binding assay (MBA), competitive binding against immobilized FK-506; conditions: inhibition of biot-MAP binding to immobilized FK-506
T1 construct: biotin (label)
From the text: 3. Macrophilin binding assay (MBA)
Rapamycin and the structurally related immunosuppressant, FK-506, are both known to bind in vivo to macrophilin-12 (also known as FK-506 binding protein or FKBP-12), and this binding is thought to be related to the immunosuppressive activity of these compounds. […] In this assay, FK-506 coupled to BSA is used to coat microtiter wells. Biotinylated recombinant human macrophilin-12 (biot-MAP) is allowed to bind in the presence or absence of a test sample to the immobilized FK-506. After washing (to remove non-specifically bound macrophilin), bound biot-MAP is assessed by incubation with a streptavidin-alkaline phosphatase conjugate, followed by washing and subsequent addition of p-nitrophenyl phosphate as a substrate. The read-out is the OD at 405 nm. Binding of a test sample to biot-MAP results in a decrease in the amount of biot-MAP bound to the FK-506 and thus in a decrease in the OD405. A dilution series of the test sample allows determination of the concentration resulting in 50% inhibition of the biot-MAP binding to the immobilized FK-506 (IC50). The inhibitory capacity of a test sample is compared to the IC50 of free FK506 as a standard and expressed as a relative IC50 (i.e., IC50 test sample/IC50 -free FK506).

rat kidney allograft = experiment: Chronic allograft rejection, rat kidney allograft model; format: in vivo; conditions: per os, 0.5 to 2.5 mg/kg, 69-72 days starting day 53-64 after transplantation
Procedure: 10. Chronic Allogaft Rejection
The kidney of a male DA (RT1^a) rat is orthotopically transplanted into a male Lewis (RT1^l) recipient. In total 24 animals are transplanted. All animals are treated with cyclosporine A at 7.5 mg/kg/day per os for 14 days starting on the day of transplantation, to prevent acute cellular rejection. Contralateral nephrectomy is not performed. Each experimental group treated with a distinct dose of a compound of formula I or placebo comprises six animals.
Starting at day 53-64 after transplantation, the recipient animals are treated per os for another 69-72 days with a compound of formula I or receive placebo. At 14 days after transplantation animals are subjected to graft assessment by magnetic resonance imaging (MRI) with perfusion measurement of the kidneys (with comparison of the grafted kidney and the own contralateral kidney). This is repeated at days 53-64 after transplantation and at the end of the experiment. The animals are then autopsied. Rejection parameters such as MRI score, relative perfusion rate of the grafted kidney and histologic score of the kidney allograft for cellular rejection and vessel changes are determined and statistically analyzed.

[3] = test system: myointimal proliferation in balloon-injured carotid artery; experiment: Angioplasty (balloon catheterization of the carotid artery); format: in vivo; conditions: rat, per os, daily dose 0.5 to 2.5 mg/kg, day -3 to day +14
Procedure: Under Isofluorane anaesthesia, a Fogarty 2F catheter is introduced into the left common carotid artery via the external carotid and inflated (distension=10 μl H2 O). The inflated balloon is withdrawn along the length of the common carotid three times, the latter two times whilst twisting gently to obtain a uniform de-endothelialization. The cathether is then removed, a ligature placed around the external carotid to prevent bleeding and the animals allowed to recover.
2 groups of 12 RoRo rats (400 g, approximately 24 weeks old) are used for the study: one control group and one group receiving the compound to be tested. The rats are fully randomized during all handling, experimental procedures and analysis.
The compound to be tested is administered p.o. (gavage) starting 3 days before balloon injury (day -3) until the end of the study, 14 days after balloon injury (day +14). Rats are kept in individual cages and allowed food and water ad libidum. […]
Sections 1-2 μm thick are cut from the middle section of each carotid with a hard metal knife on a rotary microtome and stained for 2 min with Giemse-stain. About 5 sections from each carotid are thus prepared and the cross-sectional areal of the media, neointima and the lumen morphometrically evaluated by means of an image analysis system (MCID, Toronto, Canada).

T1 sequence (P62942 whole entry): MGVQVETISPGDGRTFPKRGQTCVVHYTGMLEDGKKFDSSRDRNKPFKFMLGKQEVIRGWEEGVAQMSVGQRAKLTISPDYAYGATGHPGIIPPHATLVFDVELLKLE

## CO[C@H]1C[C@@H]2CC[C@@H](C)[C@@](O)(O2)C(=O)C(=O)N2CCCC[C@H]2C(=O)O[C@H]([C@H](C)C[C@@H]2CC[C@@H](O)[C@H](OC)C2)CC[C@H](C)/C=C(\C)[C@@H](O)[C@@H](OC)C(=O)[C@H](C)C[C@H](C)/C=C/C=C/C=C/1C [Example 1, 32-Deoxorapamycin]
Balb/c spleen cells
  relative IC50 (IC50 test sample/IC50 rapamycin): 0.3
[1]
  relative IC50 (test sample/IC50 rapamycin): 0.2
[2]
  relative IC50 (IC50 test sample/IC50 free FK506): 1
Rat kidney allograft
  rejection parameters (MRI score, relative perfusion rate of grafted kidney, histologic score): reduction in all above mentioned rejection parameters
[3]
  myointimal proliferation: inhibit myointimal proliferation

## CCC#CCO[C@H]1C[C@@H]2CC[C@@H](C)[C@@](O)(O2)C(=O)C(=O)N2CCCC[C@H]2C(=O)O[C@H]([C@H](C)C[C@@H]2CC[C@@H](O)[C@H](OC)C2)C[C@H](O)[C@H](C)/C=C(\C)[C@@H](O)[C@@H](OC)C(=O)[C@H](C)C[C@H](C)/C=C/C=C/C=C/1C [Example 2, 16-pent-2-ynyloxy-32(S)-dihydro rapamycin]
Balb/c spleen cells
  relative IC50 (IC50 test sample/IC50 rapamycin): 0.08
[1]
  relative IC50 (test sample/IC50 rapamycin): 0.09
[2]
  relative IC50 (IC50 test sample/IC50 free FK506): 2.8
Rat kidney allograft
  rejection parameters (MRI score, relative perfusion rate of grafted kidney, histologic score): reduction in all above mentioned rejection parameters
[3]
  myointimal proliferation: inhibit myointimal proliferation

## CO[C@H]1C[C@@H]2CC[C@@H](C)[C@@](O)(O2)C(=O)C(=O)N2CCCC[C@H]2C(=O)O[C@H]([C@H](C)C[C@@H]2CC[C@@H](OCCO)[C@H](OC)C2)C[C@H](O)[C@H](C)/C=C(\C)[C@@H](O)[C@@H](OC)C(=O)[C@H](C)C[C@H](C)/C=C/C=C/C=C/1C [Example 5, (32S)-dihydro40-(2-hydroxy)ethyl-rapamycin]
[2]
  relative IC50 (IC50 test sample/IC50 free FK506): 25

From patent US6200985A, “Rapamycin derivatives” (Novartis AG, priority 1995, dated 2001)
